Reference: patent publication US20040209914A1, “Aromatic sulfone hydroxamic acids and their use as protease inhibitors” (priority 2000, published 2004)
Where a name gives a salt, the structure may show the parent alone.

Legend:
Recombinant human MMP-2 = target: T1, Recombinant human MMP-2 (Homo sapiens, UniProt P08253); experiment: biochemical; details: fluorogenic MCA-peptide substrate, pH 7.5, room temperature; read-out: MMP-2 IC50
T1 construct: made in house
T1 sequence (P08253 110-660): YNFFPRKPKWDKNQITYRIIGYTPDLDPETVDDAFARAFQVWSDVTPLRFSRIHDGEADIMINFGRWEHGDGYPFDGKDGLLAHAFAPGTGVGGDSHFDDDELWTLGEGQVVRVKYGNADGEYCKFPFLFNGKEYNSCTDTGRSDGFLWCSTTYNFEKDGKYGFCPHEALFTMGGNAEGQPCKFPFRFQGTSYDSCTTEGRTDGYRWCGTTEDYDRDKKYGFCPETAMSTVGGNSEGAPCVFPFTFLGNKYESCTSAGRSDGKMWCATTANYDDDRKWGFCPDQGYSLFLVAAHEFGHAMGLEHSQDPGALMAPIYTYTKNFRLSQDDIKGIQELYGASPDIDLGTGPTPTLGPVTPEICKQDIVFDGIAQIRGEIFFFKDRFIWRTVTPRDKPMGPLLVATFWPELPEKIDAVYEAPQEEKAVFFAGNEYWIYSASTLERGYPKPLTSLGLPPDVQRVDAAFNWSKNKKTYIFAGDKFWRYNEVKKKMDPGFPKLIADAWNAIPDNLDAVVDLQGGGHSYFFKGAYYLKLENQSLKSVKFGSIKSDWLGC
Experimental: (§1) Recombinant human MMP-1, MMP-2, MMP-9, MMP-13, and were used in this assay. These enzymes were prepared in the Assignee's es following usual laboratory procedures. Specifics for preparing and e enzymes can be found in the scientific literature describing these See, e.g., Enzyme Nomenclature (Academic Press, San Diego, Calif., d the citations therein).
The MMP-2 was obtained from MMP-2 expressing transfected cells provided by Dr. Gregory Goldberg of Washington University.
(§2) The enzyme substrate was a methoxycoumarin-containing polypeptide having the following sequence:
(§3) MCA-ProLeuGlyLeuDpaAlaArgNH2
(§4) Here, “MCA” is methoxycoumarin and “Dpa” is 3-(2,4-dinitrophenyl)-L-2,3-diaminopropionyl alanine.
(§5) These solutions were then compared to a control (which contained equal amount of DMSO/buffer solution, but no hydroxamate compound) using Microfluor™ White Plates (Dynatech, Chantilly, Va.). Specifically, The MMPs were activated with APMA or trypsin. […] The control likewise was incubated at room temperature in separate plates with the MMP and 4 uM of the MMP substrate. […] Inhibition was measured as a reduction in fluorescent intensity as a function of inhibitor concentration using a Perkin Elmer (Norwalk, Conn.) L550 plate reader. The IC50's were then calculated from these measurements.

Recombinant human MMP-13 = target: T2, Recombinant human MMP-13 (Homo sapiens, UniProt P45452); experiment: biochemical; details: fluorogenic MCA-peptide substrate, pH 7.5, room temperature; read-out: MMP-13 IC50
T2 construct: made in house; host or cells: baculovirus / insect cells
Experimental: as §1
The expressed proenzyme was first purified over a heparin agarose column, and then over a chelating zinc chloride column. The proenzyme was then activated by APMA for use in the assay.
as §2, §3, §4, §5

O=C(NO)C1(S(=O)(=O)c2ccc(N3CCC(SCc4ccc(OC(F)(F)F)cc4)CC3)cc2)CCN(C2CC2)CC1 [Example 143] was tested, and the IC50 (Recombinant human MMP-2) was 100 nM and the IC50 (Recombinant human MMP-13) was 2.1 nM.

COCCN1CCC(C(=O)NO)(S(=O)(=O)c2ccc(N3CCC(C(=O)c4ccc(OCCC5CCCCC5)cc4)CC3)cc2)CC1 [Example 228] was tested, and the IC50 (Recombinant human MMP-2) was 155 nM and the IC50 (Recombinant human MMP-13) was 19.5 nM.

Compound COCCN1CCC(C(=O)NO)(S(=O)(=O)c2ccc(N3CCC(C(=O)c4ccc(COC)s4)CC3)cc2)CC1 [Example 252] has an IC50 (Recombinant human MMP-2) of 14.3 nM and an IC50 (Recombinant human MMP-13) of 0.4 nM.

Compound Cn1ccc2cc(C(=O)C3CCN(c4ccc(S(=O)(=O)C5(C(=O)NO)CCOCC5)cc4)CC3)ccc21 [Example 340] has an IC50 (Recombinant human MMP-2) of 10000 nM.

In the case of COCCN1CCC(C(=O)NO)(S(=O)(=O)c2ccc(N3CCC(C(=O)c4ccc(CO)cc4)CC3)cc2)CC1 [Example 238], the IC50 (Recombinant human MMP-2) is reported as 62.1 nM and the IC50 (Recombinant human MMP-13) is reported as 1.8 nM.

In the case of COCCN1CCC(C(=O)NO)(S(=O)(=O)c2ccc(N3CCC(c4ccc(F)cc4)CC3)cc2)CC1 [Example 262], the IC50 (Recombinant human MMP-2) is reported as 1.7 nM and the IC50 (Recombinant human MMP-13) is reported as 1 nM.

In the case of CCCCOc1ccc(C(=O)C2CCN(c3ccc(S(=O)(=O)C4(C(=O)NO)CCOCC4)cc3)CC2)cc1 [Example 329], the IC50 (Recombinant human MMP-2) is reported as 1800 nM and the IC50 (Recombinant human MMP-13) is reported as 20 nM.

C[C@@H]1CN(C(=O)C2CCN(c3ccc(S(=O)(=O)C4(C(=O)NO)CCOCC4)cc3)CC2)C[C@H](C)O1 [Example 30] gave an IC50 (Recombinant human MMP-2) greater than 10000 nM and an IC50 (Recombinant human MMP-13) of 18.1 nM.

In the case of CC1CC(C)CN(C(=O)C2CCN(c3ccc(S(=O)(=O)C4(C(=O)NO)CCN(C(=O)CNCC(F)(F)F)CC4)cc3)CC2)C1 (centres unmarked) [Example 113], the IC50 (Recombinant human MMP-2) is reported as 10000 nM.

Work on CC1CC(C)CN(C(=O)C2CCN(c3ccc(S(=O)(=O)C4(C(=O)NO)CCN(C(=O)CN5CCN(CCN(C)C)CC5)CC4)cc3)CC2)C1 (centres unmarked) [Example 111] yielded an IC50 (Recombinant human MMP-2) of 10000 nM.

O=C(c1ccc(CC2CCCCC2)cc1)C1CCN(c2ccc(S(=O)(=O)C3(C(=O)NO)CCN(C4CC4)CC3)cc2)CC1 [Example 198] was tested, and the IC50 (Recombinant human MMP-2) was 2570 nM and the IC50 (Recombinant human MMP-13) was 12 nM.

In the case of COCCN1CCC(C(=O)NO)(S(=O)(=O)c2ccc(N3CCC(C(=O)c4ccc(OC(C)C)c(F)c4)CC3)cc2)CC1 [Example 250], the IC50 (Recombinant human MMP-2) is reported as 107 nM and the IC50 (Recombinant human MMP-13) is reported as 2.1 nM.

For COCCN1CCC(C(=O)NO)(S(=O)(=O)c2ccc(N3CCC(C(=O)c4ccc(CCCC(C)O)cc4)CC3)cc2)CC1 (centres unmarked) [Example 244], the IC50 (Recombinant human MMP-13) was 0.2 nM.

Compound O=C(NO)C1(S(=O)(=O)c2ccc(N3CCC(c4ccc(Cl)cc4)CC3)cc2)CCN(C2CC2)CC1 [Example 261] has an IC50 (Recombinant human MMP-2) of 1 nM and an IC50 (Recombinant human MMP-13) of 0.8 nM.

Compound O=C(Cc1cccs1)C1CCN(c2ccc(S(=O)(=O)C3(C(=O)NO)CCOCC3)cc2)CC1 [Example 387] has an IC50 (Recombinant human MMP-2) of 344 nM and an IC50 (Recombinant human MMP-13) of 4.5 nM.

With COCCN1CCC(C(=O)NO)(S(=O)(=O)c2ccc(N3CCC(C(=O)c4ccc(C)cc4)CC3)c(Cl)c2)CC1 [Example 275] the IC50 (Recombinant human MMP-2) was 6740 nM and the IC50 (Recombinant human MMP-13) was 184 nM.

With O=C(NO)C1(S(=O)(=O)c2ccc(N3CCC(c4ccc(F)cc4)CC3)cc2)CCN(C2CC2)CC1 [Example 259] the IC50 (Recombinant human MMP-2) was 0.6 nM and the IC50 (Recombinant human MMP-13) was 0.4 nM.

With COc1ccc(C(=O)C2CCN(c3ccc(S(=O)(=O)C4(C(=O)NO)CCNCC4)cc3)CC2)cc1 [Example 140] the IC50 (Recombinant human MMP-2) was 800 nM and the IC50 (Recombinant human MMP-13) was 18.1 nM.

In the case of COCCN1CCC(C(=O)NO)(S(=O)(=O)c2ccc(N3CCC(C(=O)c4cccc(OC)c4)CC3)c(Cl)c2)CC1 [Example 276], the IC50 (Recombinant human MMP-2) is reported as 2730 nM and the IC50 (Recombinant human MMP-13) is reported as 127 nM.

In the case of C#CCN1CCC(C(=O)NO)(S(=O)(=O)c2ccc(N3CCC(C(=O)c4ccc(NC)cc4)CC3)cc2)CC1 [Example 173], the IC50 (Recombinant human MMP-2) is reported as 117 nM and the IC50 (Recombinant human MMP-13) is reported as 0.9 nM.

O=C(NO)C1(S(=O)(=O)c2ccc(N3CCC(c4ccc(Cl)cc4)CC3)cc2)CCN(CC2CC2)CC1 [Example 266] showed an IC50 (Recombinant human MMP-13) of 1.7 nM.

With COCCN1CCC(C(=O)NO)(S(=O)(=O)c2ccc(N3CCC(Sc4nccs4)CC3)cc2)CC1 [Example 256] the IC50 (Recombinant human MMP-2) was 35.4 nM and the IC50 (Recombinant human MMP-13) was 7.5 nM.

For COc1ccc(C(=O)C2CCN(c3ccc(S(=O)(=O)C4(C(=O)NO)CCN(C(=O)c5ccco5)CC4)cc3)CC2)cc1 [Example 139], the IC50 (Recombinant human MMP-2) was 330 nM and the IC50 (Recombinant human MMP-13) was 1.8 nM.

Cc1ccc(C2CCN(c3ccc(S(=O)(=O)C4(C(=O)NO)CCN(CC5CC5)CC4)cc3)CC2)cc1 [Example 273] showed an IC50 (Recombinant human MMP-2) of 13.4 nM and an IC50 (Recombinant human MMP-13) of 2.5 nM.

COCCN1CCC(C(=O)NO)(S(=O)(=O)c2ccc(N3CCC(c4nc5ccccc5o4)CC3)cc2)CC1 [Example 258] showed an IC50 (Recombinant human MMP-2) of 45.4 nM and an IC50 (Recombinant human MMP-13) of 14.1 nM.

Compound O=C(c1ccc(CN2CCCC2)cc1)C1CCN(c2ccc(S(=O)(=O)C3(C(=O)NO)CCOCC3)cc2)CC1 [Example 385] has an IC50 (Recombinant human MMP-2) of 34.6 nM and an IC50 (Recombinant human MMP-13) of 3.2 nM.

For O=C(NO)C1(S(=O)(=O)c2ccc(N3CCC(N4CCc5ccccc54)CC3)cc2)CCOCC1 [Example 383], the IC50 (Recombinant human MMP-2) was 382 nM and the IC50 (Recombinant human MMP-13) was 36.9 nM.

Work on CN(C)c1ccc(C(=O)C2CCN(c3ccc(S(=O)(=O)C4(C(=O)NO)CCOCC4)cc3)CC2)cc1 [Example 320] yielded an IC50 (Recombinant human MMP-2) of 10000 nM.

Work on O=C(NO)C1(S(=O)(=O)c2ccc(N3CCC(SCc4ccc(OC(F)(F)F)cc4)CC3)cc2)CCNCC1 [Example 146] yielded an IC50 (Recombinant human MMP-2) of 200 nM and an IC50 (Recombinant human MMP-13) of 4 nM.

For COCCN1CCC(C(=O)NO)(S(=O)(=O)c2ccc(N3CCC(C(=O)c4cccc(C)c4)CC3)c(Cl)c2)CC1 [Example 277], the IC50 (Recombinant human MMP-2) was greater than 10000 nM and the IC50 (Recombinant human MMP-13) was 274 nM.

With CCN1CCC(C(=O)NO)(S(=O)(=O)c2ccc(N3CCC(C(=O)c4ccc(NC)cc4)CC3)cc2)CC1 [Example 172] the IC50 (Recombinant human MMP-2) was 649 nM and the IC50 (Recombinant human MMP-13) was 3.1 nM.

O=C(NO)C1(S(=O)(=O)c2ccc(N3CCC(SCc4cccc(C(F)(F)F)c4)CC3)cc2)CCN(C2CC2)CC1 [Example 149] showed an IC50 (Recombinant human MMP-2) of 210 nM and an IC50 (Recombinant human MMP-13) of 16.9 nM.

With O=C(NO)C1(S(=O)(=O)c2ccc(N3CCC(c4nnc(-c5ccc(C(F)(F)F)cc5)o4)CC3)cc2)CCOCC1 [Example 375] the IC50 (Recombinant human MMP-2) was 2660 nM and the IC50 (Recombinant human MMP-13) was 34.4 nM.

Compound CNc1ccc(C(=O)C2CCN(c3ccc(S(=O)(=O)C4(C(=O)NO)CCN(S(C)(=O)=O)CC4)cc3)CC2)cc1 [Example 167] has an IC50 (Recombinant human MMP-2) of 2950 nM and an IC50 (Recombinant human MMP-13) of 4.7 nM.

COCCN1CCC(C(=O)NO)(S(=O)(=O)c2ccc(N3CCC(C(=O)c4ccc(C=C(C)C)s4)CC3)cc2)CC1 [Example 122] was tested, and the IC50 (Recombinant human MMP-2) was 106 nM and the IC50 (Recombinant human MMP-13) was 0.1 nM.

COCCN1CCC(C(=O)NO)(S(=O)(=O)c2ccc(N3CCC(C(=O)c4ccc(CN5CCOCC5)cc4)CC3)cc2)CC1 [Example 240] showed an IC50 (Recombinant human MMP-2) of 86 nM and an IC50 (Recombinant human MMP-13) of 2.8 nM.

CN(C)Cc1ccc(C(=O)C2CCN(c3ccc(S(=O)(=O)C4(C(=O)NO)CCOCC4)cc3)CC2)cc1 [Example 384] showed an IC50 (Recombinant human MMP-2) of 52.9 nM and an IC50 (Recombinant human MMP-13) of 2.9 nM.

CN(C)CCN1CCN(C(=O)C2CCN(c3ccc(S(=O)(=O)C4(C(=O)NO)CCOCC4)cc3)CC2)CC1 [Example 19] was tested, and the IC50 (Recombinant human MMP-2) was 10000 nM.

With C[C@H]1C[C@H](C)CN(C(=O)C2CCN(c3ccc(S(=O)(=O)C4(C(=O)NO)CCNCC4)cc3)CC2)C1 (relative stereo) [Example 72, rel-4-[[4-[4-[[(3R,5R)-3,5-dimethyl-1-piperidinyl]carbonyl]-1-piperidinyl]phenyl]sulfonyl]-N-hydroxy-4-piperidinecarboxamide, monohydrochloride] the IC50 (Recombinant human MMP-2) was 10000 nM.

Compound C[C@@H]1C[C@H](C)CN(C(=O)C2CCN(c3ccc(S(=O)(=O)C4(C(=O)NO)CCNCC4)cc3)CC2)C1 [Example 74, rel-4-[[4-[4-[[(3R,5S)-3,5-dimethyl-1-piperidinyl]carbonyl]-1-piperidinyl]phenyl]sulfonyl]-N-hydroxy-4-piperidinecarboxamide, monohydrochloride] has an IC50 (Recombinant human MMP-2) of 10000 nM.
